Consider three compounds from patent US10844064B2, “sGC stimulators” (Cyclerion Therapeutics, Inc., priority 2014, dated 2020).

For assay [1], the system named is lambs with acute pulmonary hypertension. To be noted: inhaled microparticles, awake lambs, cited from earlier work.
The next assay relates to obese mice. To be noted: cited from earlier work.
Assay [2] concerns Guinea pig tracheal smooth muscle. Put plainly: Electrical field stimulated guinea pig tracheal smooth muscle contraction (ex vivo). The note with it: sub-maximal EFS, cumulative dose response curve, three animals pooled; 95% Cl 0.78-0.94; read-out: IC50 (inhibition of EFS-induced baseline contraction). An excerpt:
Electrical Field Stimulated Guinea Pig Tracheal Smooth Muscle In Vitro (ex vivo) Model for the Assessment of Bronchodilation.
Animals: Guinea pig, Dunkin Hartley, male, Full barrier-bred and certified free of specific micro-organisms on receipt 525-609 g on the experimental day, Harlan UK Ltd. Guinea pigs are housed in a group of 4 in solid-bottomed cages with Gold Flake bedding in a controlled environment (airflow, temperature and humidity). Food (FD1, Special Diet Services) and water are provided ad libitum.
On each experimental day, a guinea pig is killed by exposure to a rising concentration of CO2 and the trachea removed. […] Tissues are washed with Kreb's buffer and stimulated using the previously determined sub-maximal voltage for 1 hour to establish a stable baseline contraction prior to assessment of compound activity.
A cumulative dose response curve (DRC) to each test substance is then performed and changes in smooth muscle contraction measured. The effect of each test substance in each experiment is expressed as a percentage inhibition of the baseline contraction, normalized to the relevant vehicle controls. […] The data from all three experiments are pooled, the DRC plotted, and the test substance potency and efficacy determined.

As to `O=C(O)CCCCN(CCc1ccccc1OCc1ccc(CCc2ccccc2)cc1)Cc1ccc(C(=O)O)cc1` [BAY 58-2667], the pulmonary vasodilation entry in assay [1] (U-46619 infusion to mean pulmonary arterial pressure 35 mm Hg) was “dose dependent pulmonary vasodilation”. In assay [1] (U-46619 infusion), the “effect on mean arterial pressure” value was “without significant effect”, the systemic arterial oxygenation entry is given as “increased systemic arterial oxygenation” and the “transpulmonary cGMP release” value was “increased transpulmonary cGMP release”.

Consider `O=C(O)CCCCN(CCc1cc(F)ccc1OCc1ccc(-c2ccc(C(F)(F)F)cc2)cc1)Cc1ccc(C(=O)O)cc1` [BAY 60-2770], for which the “effect on overactive bladder” value in the assay with obese mice is on record as “ameliorates overactive bladder”.

As for `CC(C)[N+]1(C)[C@@H]2CC[C@H]1CC(OC(=O)C(CO)c1ccccc1)C2` (stereo partly drawn) [Ipratropium bromide], the IC50 in assay [2] amounted to 860 pM.
